Measured values from patent US6787651B2, “Substituted indoles, pharmaceutical compounds containing such indoles and their use as PPAR-γ binding agents” (SmithKline Beecham Corporation, priority 2000, dated 2004).
Like-named read-outs stand apart in the source and are kept apart here.

Experiments:
[1] = biological target: T1, PPARγ ligand binding domain (LBD) (amino acids 195-475) (Homo sapiens, UniProt P37231); assay: PPAR-γ binding assay (spin plate / gel filtration binding assay, displacement of [3H]BRL 49653)
T1 construct: polyHis; made in house; host or cells: Escherichia coli
T1 sequence (P37231 195-475 isoform P37231-2): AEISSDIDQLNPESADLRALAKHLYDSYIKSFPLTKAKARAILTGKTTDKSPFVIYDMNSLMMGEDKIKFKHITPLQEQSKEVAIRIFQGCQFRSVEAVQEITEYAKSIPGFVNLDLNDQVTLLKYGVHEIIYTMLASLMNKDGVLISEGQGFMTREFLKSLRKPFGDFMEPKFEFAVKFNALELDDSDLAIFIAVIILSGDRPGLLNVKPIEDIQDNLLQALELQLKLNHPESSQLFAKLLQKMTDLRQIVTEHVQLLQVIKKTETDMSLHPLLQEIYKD
Procedure: The activity of a given compound in binding to PPAR-γ can be assayed routinely according to procedures known in the art. […] The PPAR-γ binding assay described below was used to determine the PPAR-γ binding activities of the compounds of the invention.
Compounds were tested for their ability to bind to PPARγ using a spin plate assay (gel filtration binding assay). […] Each compound was tested in triplicate. […] The plates were centrifuged (Beckman GS-6R) at 2500 rpm for 5 minutes, 170 μl Scitisafe® scintillation fluid (Fisher) was added to each well, the plates were sealed, and after 1 hour, were counted in a Wallac MicroBeta counter. The amount of nonspecific binding, as assessed by control wells containing 10 μM of the corresponding unlabeled ligand, was subtracted from each data point. For each compound tested, the data was averaged and plots of ligand concentration versus CPM of radioligand bound were constructed. Apparent IC50 values were estimated from nonlinear least-squares fit of the data assuming simple competitive binding.

[2] = read-out: IC50 range in the PPAR-γ Binding Assay

`COc1cccc(Cn2c(C(=O)O)c(-c3ccc(OCC4CC4)cc3)c3cc(OCc4ccccc4)ccc32)c1` [Example 229, 5-(Benzyloxy)-3-[4-(cyclopropylmethoxy)phenyl]-1-(3-methoxybenzyl)-1H-indole-2-carboxylic acid] gave a melting point of 185 to 187 °C.

For `COc1ccc(Cc2c(C(=O)O)n(CC3CC3)c3ccccc23)cc1` [Example 230, 1-(Cyclopropylmethyl)-3-[(4-methoxyphenyl)methyl]indole-2-carboxylic acid], the IC50 [1, 2] was 10 to 10000 nM and the melting point was 162 to 163 °C.

Work on `O=C(O)c1c(C=C2CC2)c2ccccc2n1Cc1cccc(C(F)(F)F)c1` [Example 231, 3-(Cyclopropylidenemethyl)-1-[3-(trifluoromethyl)benzyl]-1H-indole-2-carboxylic acid] yielded an IC50 [1, 2] of 0.1 to 9.99 nM and a melting point of 148 to 150 °C.

In the case of `O=C(O)c1c(-c2cc3ccccc3o2)c2ccccc2n1Cc1cccc(C(F)(F)F)c1` [Example 235], the IC50 [1, 2] is reported as 0.1 to 9.99 nM and the melting point is reported as 211 to 214 °C.

For `CC(=O)c1ccc(-c2c(C(=O)O)n(Cc3cccc(C(F)(F)F)c3)c3ccccc23)s1` [Example 236], the IC50 [1, 2] was 0.1 to 9.99 nM and the melting point was 212 to 214 °C.

Molecule `O=C(O)c1c(-c2ccco2)c2ccccc2n1Cc1cccc(C(F)(F)F)c1` [Example 237] has an IC50 [1, 2] of 0.1 to 9.99 nM and a melting point of 172 to 173 °C.

Molecule `COc1cccc(Cn2c(C(=O)O)c(-c3ccc(-c4ccco4)cc3)c3ccccc32)c1` [Example 240] has an IC50 [1, 2] of 0.1 to 9.99 nM and a melting point of 190 to 192 °C.

`COc1ccc(C(=O)c2c(C(=O)O)n(Cc3cccc(OC)c3)c3ccccc23)cc1` [Example 241] showed an IC50 [1] of 10 to 10000 nM and a melting point of 68 to 69 °C.

Work on `COc1ccc(C(=O)c2c(C(=O)O)n(Cc3cccc(C(F)(F)F)c3)c3ccccc23)cc1` [Example 242] yielded an IC50 [1] of 10 to 10000 nM and a melting point of 215 to 216 °C.

`O=C(O)c1c(/C=C/c2ccccc2)c2ccccc2n1Cc1cccc(C(F)(F)F)c1` [Example 243] showed an IC50 [1, 2] of 0.1 to 9.99 nM and a melting point of 183 to 185 °C.

`O=C(O)c1c(C#Cc2ccccc2)c2ccccc2n1Cc1cccc(C(F)(F)F)c1` [Example 244] showed an IC50 [1, 2] of 0.1 to 9.99 nM and a melting point of 165 to 167 °C.

In the case of `O=C(O)c1c(CC2CC2)c2ccccc2n1Cc1cccc(C(F)(F)F)c1` [Example 264], the IC50 [1, 2] is reported as 0.1 to 9.99 nM and the melting point is reported as 174 to 175 °C.

Work on `COc1cccc(Cn2c(C(=O)O)c(CC3CC3)c3ccccc32)c1` [Example 265] yielded an IC50 [1, 2] of 0.1 to 9.99 nM and a melting point of 165 to 167 °C.

In the case of `COc1cccc(Cn2c(C(=O)O)c(-c3ccc(C(C)(C)C)cc3)c3cc(COCC4CC4)ccc32)c1` [Example 266], the IC50 [1, 2] is reported as 0.1 to 9.99 nM and the melting point is reported as 79 to 80 °C.

`COc1cccc(Cn2c(C(=O)O)c(-c3ccc(C(C)(C)C)cc3)c3cc(NC(=O)C4CC4)ccc32)c1` [Example 268] gave an IC50 [1, 2] of 0.1 to 9.99 nM and a melting point of 194 to 196 °C.

Molecule `COc1cccc(Cn2c(C(=O)O)c(-c3ccc(C(C)(C)C)cc3)c3cc(NC(=O)C4CCCC4)ccc32)c1` [Example 269] has an IC50 [1, 2] of 10 to 10000 nM and a melting point of 154 to 156 °C.

Work on `COc1cccc(Cn2c(C(=O)O)c(-c3ccc(C(C)(C)C)cc3)c3cc(NC(=O)NCC4CC4)ccc32)c1` [Example 270] yielded an IC50 [1, 2] of 10 to 10000 nM and a melting point of 141 to 142 °C.

`COc1ccc(-c2c(C(=O)O)n(CC(=O)c3ccccc3)c3ccccc23)cc1` [Example 281] showed an IC50 [1, 2] of 10 to 10000 nM.

Work on `COc1cccc(-c2c(C(=O)O)n(Cc3cccc(OCC4CC4)c3)c3ccccc23)c1` [Example 283] yielded an IC50 [1, 2] of 0.1 to 9.99 nM.

Molecule `CCOc1ccc(-c2c(C(=O)O)n(Cc3ccc(F)cc3)c3c(NC(=O)C4CC4)cccc23)cc1` [Example 285] has a melting point of 250 °C.

`COc1cccc(Cn2c(C(=O)O)c(-c3ccc(C(=O)N(C)C4CCCC4)cc3)c3ccccc32)c1` [Example 304] showed an IC50 [1, 2] of 0.1 to 9.99 nM.

`COc1cccc(Cn2c(C(=O)O)c(-c3ccc(OCC4CC4)cc3)c3ccccc32)c1` [Example 305, 3-[4-(Cyclopropylmethoxy)phenyl]-1-(3-methoxybenzyl)-1H-indole-2-carboxylic acid] showed an IC50 [1, 2] of 0.1 to 9.99 nM.

`COc1cccc(Cn2c(C(=O)O)c(-c3ccc(OCC4CCCCO4)cc3)c3ccccc32)c1` (stereo not shown) [Example 306] gave an IC50 [1, 2] of 10 to 10000 nM.

In the case of `COc1cccc(Cn2c(C(=O)O)c(-c3ccc(OCc4ccc5ccccc5n4)cc3)c3ccccc32)c1` [Example 307], the IC50 [1, 2] is reported as 0.1 to 9.99 nM.

Work on `O=C(O)c1c(-c2ccc(OCC3CC3)cc2)c2ccccc2n1Cc1cccc(C(F)(F)F)c1` [Example 308] yielded an IC50 [1, 2] of 0.1 to 9.99 nM.

With `COc1cccc(Cn2c(C(=O)O)c(-c3ccc(OCC(=O)c4ccc(N5CCCC5)cc4)cc3)c3ccccc32)c1` [Example 310] the IC50 [1, 2] was 10 to 10000 nM.

For `COCCOc1ccc2c(c1)c(-c1ccc(OCC3CC3)cc1)c(C(=O)O)n2Cc1cccc(OC)c1` [Example 312], the IC50 [1, 2] was 0.1 to 9.99 nM.

Molecule `COc1cccc(Cn2c(C(=O)O)c(-c3ccc(OCC4CC4)cc3)c3cc(OCC=O)ccc32)c1` [Example 313] has an IC50 [1, 2] of 0.1 to 9.99 nM.

In the case of `COc1cccc(Cn2c(C(=O)O)c(-c3ccc(OCC4CC4)cc3)c3cc(OCC4CCC4)ccc32)c1` [Example 314], the IC50 [1, 2] is reported as 0.1 to 9.99 nM.

`COc1cccc(COc2ccc3c(c2)c(-c2ccc(OCC4CC4)cc2)c(C(=O)O)n3Cc2cccc(OC)c2)c1` [Example 315] gave an IC50 [1, 2] of 0.1 to 9.99 nM.

`COc1cccc(Cn2c(C(=O)O)c(-c3ccc(OCC4CC4)cc3)c3cc(OCc4ccc(C(C)(C)C)cc4)ccc32)c1` [Example 318] gave an IC50 [1, 2] of 10 to 10000 nM.

Work on `COc1cccc(Cn2c(C(=O)O)c(-c3ccc(OCC4CC4)cc3)c3cc(OCc4ccc(C(F)(F)F)cc4)ccc32)c1` [Example 319] yielded an IC50 [1, 2] of 10 to 10000 nM.

With `COc1cccc(Cn2c(C(=O)O)c(-c3ccc(OCC4CC4)cc3)c3cc(OCCCc4ccccc4)ccc32)c1` [Example 320] the IC50 [1, 2] was 0.1 to 9.99 nM.

In the case of `COc1cccc(Cn2c(C(=O)O)c(-c3ccc(OCC4CC4)cc3)c3cc(OCc4cccc(C(F)(F)F)c4)ccc32)c1` [Example 321], the IC50 [1, 2] is reported as 0.1 to 9.99 nM.

Molecule `COc1cccc(Cn2c(C(=O)O)c(-c3ccc(OCC4CC4)cc3)c3cc(OCc4ccc(C(=O)O)cc4)ccc32)c1` [Example 322] has an IC50 [1, 2] of 10 to 10000 nM.

`COc1cccc(Cn2c(C(=O)O)c(-c3cccc(NC(=O)C4CC4)c3)c3ccccc32)c1` [Example 326] gave an IC50 [1, 2] of 10 to 10000 nM.

With `CCOc1ccc2c(c1)c(-c1ccc(OCC3CC3)cc1)c(C(=O)O)n2Cc1cccc(OC)c1` [Example 330, 3-[4-(Cyclopropylmethoxy)phenyl]-5-ethoxy-1-(3-methoxybenzyl)-1H-indole-2-carboxylic acid] the IC50 [1, 2] was 0.1 to 9.99 nM.

`CCCOc1ccc2c(c1)c(-c1ccc(OCC3CC3)cc1)c(C(=O)O)n2Cc1cccc(OC)c1` [Example 331] gave an IC50 [1, 2] of 0.1 to 9.99 nM.

Work on `CCCCOc1ccc2c(c1)c(-c1ccc(OCC3CC3)cc1)c(C(=O)O)n2Cc1cccc(OC)c1` [Example 332] yielded an IC50 [1, 2] of 0.1 to 9.99 nM.

`C=CCOc1ccc2c(c1)c(-c1ccc(OCC3CC3)cc1)c(C(=O)O)n2Cc1cccc(OC)c1` [Example 333] showed an IC50 [1, 2] of 10 to 10000 nM.

In the case of `COc1cccc(Cn2c(C(=O)O)c(-c3ccc(OCC4CC4)cc3)c3cc(OCC4CC4)ccc32)c1` [Example 334], the IC50 [1, 2] is reported as 0.1 to 9.99 nM.

Molecule `COc1ccc(-c2c(C(=O)O)n(S(=O)(=O)c3cccc(C(F)(F)F)c3)c3ccccc23)cc1` [Example 337, 3-(4-Methoxyphenyl)-1-{[3-(trifluoromethyl)phenyl]sulfonyl}indole-2-carboxylic acid] has an IC50 [1, 2] of 10 to 10000 nM.

In the case of `COc1ccc(-c2c(C(=O)O)n(C(=O)c3cccc(C(F)(F)F)c3)c3ccccc23)cc1` [Example 338, 3-(4-Methoxyphenyl)-1-{[3-(trifluoromethyl)phenyl]carbonyl}indole-2-carboxylic Acid], the IC50 [1, 2] is reported as 10 to 10000 nM.

`O=C(O)c1c(-c2cccc(OCC3CC3)c2)c2ccccc2n1Cc1cccc(OC(F)(F)F)c1` [Example 340] showed an IC50 [1, 2] of 0.1 to 9.99 nM.

For `CC(=O)c1cnc(-c2c(C(=O)O)n(Cc3cccc(C(F)(F)F)c3)c3ccccc23)s1` [Example 342], the IC50 [1, 2] was 0.1 to 9.99 nM.

With `COc1cccc(Cn2c(C(=O)O)c(-c3ncc(C4CC4)s3)c3ccccc32)c1` [Example 344] the IC50 [1, 2] was 0.1 to 9.99 nM.

In the case of `CCOc1ccc(-c2c(C(=O)O)n(Cc3ccc(F)cc3)c3ccc(CCOCC4CC4)cc23)cc1` [Example 348, 5-[2-(Cyclopropylmethoxy)ethyl]-3-(4-ethoxyphenyl)-1-(4-fluorobenzyl)-1H-indole-2-carboxylic acid], the IC50 [1, 2] is reported as 0.1 to 9.99 nM.

In the case of `COc1ccc(-c2c(C(=O)O)n(/C=C/c3ccccc3)c3ccccc23)cc1` [Example 349, 1-((1E)-2-Phenylvinyl)-3-(4-methoxyphenyl)indole-2-carboxylate], the IC50 [1, 2] is reported as 0.1 to 9.99 nM.

For `O=C(O)c1c(-c2ccc(S(=O)(=O)C3CC3)cc2)c2ccccc2n1Cc1cccc(C(F)(F)F)c1` [Example 353, 3-[4-(Cyclopropylsulfonyl)phenyl]-1-{[3-(trifluoromethyl)phenyl]methyl}indole-2-carb-oxylic acid], the IC50 [1, 2] was 0.1 to 9.99 nM.

With `COc1ccc(-c2c(C(=O)NS(=O)(=O)c3ccc(OC)cc3)n(Cc3cccc(C(F)(F)F)c3)c3ccccc23)cc1` [Example 357] the IC50 [1, 2] was 0.1 to 9.99 nM.

Molecule `COc1ccc(-c2c(C(=O)C(F)(F)F)n(Cc3cccc(C(F)(F)F)c3)c3ccccc23)cc1` [Example 360, 2,2,2-Trifluoro-1-{3-(4-methoxyphenyl)-1-[3-(trifluoromethyl)benzyl]-1H-indol-2-yl}ethanone] has an IC50 [1, 2] of 10 to 10000 nM.
